Measurements from patent US4683292A, “Immunotherapeutic polypeptide agents which bind to lymphocyte immunoglobulin FC receptors” (Immunetech, Inc., priority 1983, dated 1987).
Blank lines part the entries; values can stand above or below the molecule they belong to. Ends that are not written are not given here. Peptide text beside a SMILES is read from it.

What was measured:
[1] = system: NEUTROPHIL (PMN) Fc Receptor IgG; assay: Rosette inhibition assay, IgG-coated ox erythrocytes, fresh human PMNs; assay type: binding; conditions: relative to intact monomeric myeloma protein at equal concentration; 15 min preincubation
Protocol: (§1) The Fc receptor blocking activity of the subject peptides was assessed using well established techniques and procedures. In particular, a rosette assay was employed which uses either monomeric, chemically or heat aggregated human IgG or IgE obtained from human myeloma sera. (Gonzalez-Molina, et al., J. Clin. Invest., 59, 616 (1977); Spiegelberg, et al. in Immunoassays: Clinical Laboratory Techniques for the 1980's (Alan R. Liss: New York, 1980), pp. 287-300). The IgG or IgE is then adsorbed to ox-erythrocytes which has been previously treated with trypsin and pyruvic aldehyde. […] Addition of inhibitor myeloma proteins or inhibitor peptides produced a reproducable reduction of rosette formation, […], phosphate buffered isotonic saline, was used alone as control and then multiplying the calculated quotient by 100.
(§2) Table 1 presents the inhibition observed by representative peptide inhibitors calculated as a percentage of the inhibition observed with intact, monomeric myeloma proteins. […]

[2] = system: MONOCYTE/MACROPHAGE Fc Receptor IgG; assay: Rosette inhibition assay, IgG-coated ox erythrocytes, monocytes / U937; assay type: binding, human; conditions: relative to intact monomeric myeloma protein at equal concentration; 15 min preincubation
Protocol: as §1, §2

[3] = system: BASOPHIL Fc Receptor IgG; assay: Rosette inhibition assay, IgG-coated ox erythrocytes, basophils; assay type: binding, human; conditions: relative to intact monomeric myeloma protein at equal concentration; 15 min preincubation
Protocol: as §1, §2

[4] = system: systemic allergic disease; conditions: humans, subcutaneous injection; cited from earlier work
[5] = target: T1, IgE Fc receptor of human basophils (Homo sapiens, UniProt P12319); conditions: Plummer et al. 1983; cited from earlier work
T1 construct: host or cells: human basophils
T1 sequence (P12319 26-257): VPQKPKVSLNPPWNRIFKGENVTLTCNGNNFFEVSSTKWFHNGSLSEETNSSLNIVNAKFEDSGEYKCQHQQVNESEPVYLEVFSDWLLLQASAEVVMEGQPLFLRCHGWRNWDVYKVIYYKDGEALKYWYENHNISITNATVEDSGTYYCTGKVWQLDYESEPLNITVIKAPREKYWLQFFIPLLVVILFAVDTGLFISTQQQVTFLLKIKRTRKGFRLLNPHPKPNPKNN
T1 sequence (Q01362 1-244 partner): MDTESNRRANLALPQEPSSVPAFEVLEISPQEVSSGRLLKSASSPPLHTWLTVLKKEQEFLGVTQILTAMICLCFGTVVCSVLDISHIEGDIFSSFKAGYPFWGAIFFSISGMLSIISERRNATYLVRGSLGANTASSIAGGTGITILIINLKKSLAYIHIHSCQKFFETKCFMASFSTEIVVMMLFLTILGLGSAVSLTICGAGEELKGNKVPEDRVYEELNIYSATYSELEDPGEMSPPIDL
T1 sequence (P30273 19-86 partner): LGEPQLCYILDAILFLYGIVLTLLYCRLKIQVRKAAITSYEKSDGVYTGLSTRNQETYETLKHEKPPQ

[6] = system: granulocytes, monocytes and macrophages; conditions: in vitro; cited from earlier work
[7] = system: human mast cells; conditions: Stanworth et al. 1979; cited from earlier work
[8] = system: rodent mast cells; conditions: Stanworth et al. 1979; cited from earlier work
[9] = system: human monocyte IgG Fc receptors; conditions: Ciccimarra et al. 1975; Ratcliffe and Stanworth 1982; cited from earlier work

- Rosette inhibition expressed as percent inhibition by monomeric IgG, monocyte/macrophage Fc receptor IgG [2]: 19%
- Rosette inhibition expressed as percent inhibition by monomeric IgG, basophil Fc receptor IgG [3]: 74%
Molecule: CC(=O)N[C@@H](CCC(N)=O)C(=O)N1CCC[C@H]1C(=O)N[C@@H](CCC(=O)O)C(=O)N[C@@H](CC(N)=O)C(=O)O [Ac--Gln--Pro--Glu--Asn, Ac-Gln-Pro-Glu-Asn] (Ac-QPEN-OH)
- Rosette inhibition expressed as percent inhibition by monomeric IgG, neutrophil (PMN) Fc receptor IgG [1]: 95%

Molecule: Asp-Ser-Asp-Pro-Arg (DSDPR; printed: Asp-Ser-Asp-Pro-Arg) [pentapeptide derived from human IgE Cε 3 at aa 320-324]
- inhibition of systemic allergic disease [4]: inhibit systemic allergic disease
- blocking of human IgE binding to basophil IgE Fc receptors [5]: up to 70%

Molecule: Gly-Gln-Pro-Arg (GQPR; printed: Gly-Gln-Pro-Arg) [Rigin, tetrapeptide analogue of Tuftsin]
- stimulation of phagocytosis [6]: phagocytosis-stimulating abilities similar to those of Tuftsin

Molecule: PRKTKGSGFFVF [portion of Cε 4 of human IgE, aa 495-506]
- degranulation of mast cells [7]: cause degranulation
- degranulation of mast cells [8]: cause degranulation

Molecule: QYDSTYR [heptapeptide identical to IgG aa 295-301]
- blocking of IgG binding to human monocyte IgG Fc receptors [9]: slightly block
